Laboratory results published in ChEMBL document CHEMBL4190278, “Multipotent AChE and BACE-1 inhibitors for the treatment of Alzheimer's disease: Design, synthesis and bio-analysis of 7-amino-1,4-dihydro-2H-isoquilin-3-one derivates” (Eur J Med Chem, 2017).
Activity calls are given as the source filed them. The calls are words filed in the database; no cut-off is given here.

Key:
[1] = Metal chelating activity assessed as Cu2+-compound complex formation at 35 uM by UV-Visible spectrophotometric method
Acetylcholinesterase [2] = target: T1, Acetylcholinesterase (Homo sapiens, UniProt P22303); experiment: Inhibition of human AChE using acetylthiocholine as substrate by Ellman's method
Acetylcholinesterase [3] = target: T1, Acetylcholinesterase; experiment: Potency index, ratio of donepezil IC50 to compound IC50 for human AChE

T1 sequence (P22303 whole entry): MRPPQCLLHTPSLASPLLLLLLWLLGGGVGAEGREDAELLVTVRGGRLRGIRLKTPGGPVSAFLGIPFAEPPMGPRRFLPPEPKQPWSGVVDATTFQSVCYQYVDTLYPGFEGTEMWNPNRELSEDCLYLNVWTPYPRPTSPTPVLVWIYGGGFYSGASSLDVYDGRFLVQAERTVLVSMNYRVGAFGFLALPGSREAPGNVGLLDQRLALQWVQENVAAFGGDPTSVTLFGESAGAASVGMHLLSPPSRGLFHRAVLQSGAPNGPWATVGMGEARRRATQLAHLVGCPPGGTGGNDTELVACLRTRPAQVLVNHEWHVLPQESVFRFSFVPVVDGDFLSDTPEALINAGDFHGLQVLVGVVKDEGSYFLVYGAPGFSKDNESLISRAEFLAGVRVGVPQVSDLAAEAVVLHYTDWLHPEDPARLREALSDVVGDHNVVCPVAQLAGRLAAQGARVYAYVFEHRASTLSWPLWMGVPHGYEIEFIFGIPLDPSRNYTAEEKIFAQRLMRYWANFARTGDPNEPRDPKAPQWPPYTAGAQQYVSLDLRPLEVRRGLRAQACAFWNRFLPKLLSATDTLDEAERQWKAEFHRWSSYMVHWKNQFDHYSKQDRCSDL

Row | Compound | Activity [1] | IC50 (Acetylcholinesterase [2]) [nM] | Ratio IC50 (Acetylcholinesterase [3])
1 | COc1ccccc1C(=O)N1Cc2cc(NC(=O)c3ccccc3)ccc2CC1=O | Active | 0.0189 | 181
2 | Cc1cccc(C(=O)Nc2ccc3c(c2)CN(C(=O)c2cccc(Cl)c2)C(=O)C3)c1 | – | 0.0209 | –
3 | O=C1Cc2ccc(NC(=O)c3ccccc3)cc2CN1 | – | 1320 | –
4 | COc1ccccc1C(=O)N1Cc2cc(NC(=O)c3cccc(Cl)c3)ccc2CC1=O | – | – | 315
5 | O=C1Cc2ccc(NC(=O)c3cccc(Cl)c3)cc2CN1 | – | 914 | –
6 | Cc1cccc(C(=O)Nc2ccc3c(c2)CN(C(=O)c2cccc(C)c2)C(=O)C3)c1 | – | 0.0135 | –
7 | Nc1ccc2c(c1)CNC(=O)C2 | – | 1360 | –
8 | Cc1cccc(C(=O)N2Cc3cc(NC(=O)c4cccc(Cl)c4)ccc3CC2=O)c1 | – | 0.0144 | –
9 | COc1ccccc1C(=O)Nc1ccc2c(c1)CN(C(=O)c1cccc(C)c1)C(=O)C2 | – | 0.0259 | –
10 | COc1ccccc1C(=O)Nc1ccc2c(c1)CN(C(=O)c1ccccc1OC)C(=O)C2 | – | 0.0216 | –
11 | O=C(Nc1ccc2c(c1)CN(C(=O)c1cccc(Cl)c1)C(=O)C2)c1ccccc1 | – | 0.0284 | –
12 | Cc1cccc(C(=O)Nc2ccc3c(c2)CNC(=O)C3)c1 | – | 791 | –
13 | Cc1cccc(C(=O)N2Cc3cc(NC(=O)c4ccccc4)ccc3CC2=O)c1 | – | 0.0262 | –
14 | O=C(Nc1ccc2c(c1)CN(C(=O)c1ccccc1)C(=O)C2)c1ccccc1 | – | 0.51 | –
15 | COc1ccccc1C(=O)Nc1ccc2c(c1)CNC(=O)C2 | – | 926 | –
16 | O=C(Nc1ccc2c(c1)CN(C(=O)c1cccc(Cl)c1)C(=O)C2)c1cccc(Cl)c1 | – | 0.0142 | –
